Patent publication US20250073209A1, “COVALENT TARGETING OF RhoA FOR CANCER THERAPY” (The University of Hong Kong, priority 2023, published 2025)

What was measured:
[1] = molecular target: Cdc42 (Homo sapiens, UniProt P60953); test: Gel-based competitive ABPP, second screening on Cdc42; assay type: binding
Protocol: Recombinant human RhoA (0.1 μg; ab101594) was pretreated with cysteine-reactive compounds or DMSO for 1 hour at room temperature, followed by incubation with iodoacetamide-rhodamine (IA-Rh; 1 μM) for 1 hour at room temperature. The reaction was then quenched by boiling in sampling buffer. Samples were subjected to SDS-PAGE to separate proteins bands. In-gel fluorescence intensity was measured with a Chemidoc using setting for Rhodamine. Gel was subsequently stained with silver stain (Pierce) for visualization of protein content and covalent modification. Band intensity was quantified using ImageJ.
CL16 was identified for its strong and specific binding with RhoA in covalent ligand screening experiment by ABPP. ABPP is known as a powerful platform for covalent ligand screening, particularly for the identification of lead compounds targeting new hotspots for therapy. Competitive gel-based activity-based protein profiling (ABPP) experiment was performed on purified RhoA protein for screening its interactions with a library of cysteine-reactive covalent ligands with acrylamide or chloroacetamide warheads. RhoA protein for the first screening and on Rac1 and Cdc42 for the second screening to identify lead compounds with specific binding onto RhoA Cys16. […] The reaction mixture was then resolved by SDS-PAGE and in-gel fluorescence was imaged (FIG. 1A). […]

[2] = test system: normal colon fibroblast CCD-18Co cells; test: MTT assay on normal colon fibroblasts; assay type: cell-based, human; conditions: 48 h, compared with CRCs
Protocol: HCT116 cells was seeded at 2,500 cells/well; HT29, LOVO and SW620 cells were seeded at 4,000 cells/well; CCD-18Co cells were seeded at 10,000/well; and SW480 cells were seeded at 12,000 cells/well in 96 well plate in triplicates. Cells were treated with a concentration gradient of CL16 for 48 hours. Then, cells were incubated with 10% 3-(4,5-Dimethylthiazol-2-yl)-2,5-diphenyltetrazolium bromide (MTT) solution ([…]) in 37° C. for 4 hours. Cells were then lyzed in 10% SDS in […] HCl. Absorbance of individual well was measured at 570 nm. IC50 values were analyzed by nonlinear best-fit regression using Prism Graphpad 9.
As discussed above, overexpression/hyperactivity of RhoA associated with poor prognosis and aggressive behaviors of CRCs (FIG. 8A). Thus, the anti-cancer and anti-metastatic properties of CL16 in CRCs were explored. First, it was confirmed that genetic knockdown of RhoA by siRNA slowed down colony formation and migration of CRCs by using staining (data not shown) and wound healing assay (FIG. 4A). MTT assay was used to determine cell viability of CRCs and normal colon fibroblast CCD-18Co cells treated with CL16 for 48 h (n=3 different biological replicates/group). A much lower expression level of RhoA in normal colon fibroblast CCD-18Co cells was also determined, as compared to CRCs, by western blotting (data not shown). […]

[3] = test system: HT29 cells; test: Wound healing assay; assay type: cell-based, human
Protocol: For wound healing assay, HT29 cells were seeded in 90% confluency, a wound was scratched using a P-20 tip the next day. Cell debris was washed with PBS then aspirated. Then, complete DMEM medium with CL16 or Rhosin with corresponding concentration was added to the cells. Wound closure was recorded every 24 hours under light microscope with 10× objective and measurement of wound area was made by ImageJ.
As discussed above, overexpression/hyperactivity of RhoA associated with poor prognosis and aggressive behaviors of CRCs (FIG. 8A). Thus, the anti-cancer and anti-metastatic properties of CL16 in CRCs were explored. First, it was confirmed that genetic knockdown of RhoA by siRNA slowed down colony formation and migration of CRCs by using staining (data not shown) and wound healing assay (FIG. 4A). MTT assay was used to determine cell viability of CRCs and normal colon fibroblast CCD-18Co cells treated with CL16 for 48 h (n=3 different biological replicates/group). A much lower expression level of RhoA in normal colon fibroblast CCD-18Co cells was also determined, as compared to CRCs, by western blotting (data not shown). […] HT29 cells were transfected with siRNA (5 μM) using Dharmafect1 for 48 hours, and protein expressions were then investigated by immunoblotting.

[4] = molecular target: RhoA (Homo sapiens, UniProt P61586); test: LC-MS/MS on HCT116 cells treated with CL16; assay type: cell-based; parameters: endogenous in cells; host or cells: HCT116; conditions: CL16 25 or 50 μM, 4 hours
RhoA, sequence (P61586 whole entry): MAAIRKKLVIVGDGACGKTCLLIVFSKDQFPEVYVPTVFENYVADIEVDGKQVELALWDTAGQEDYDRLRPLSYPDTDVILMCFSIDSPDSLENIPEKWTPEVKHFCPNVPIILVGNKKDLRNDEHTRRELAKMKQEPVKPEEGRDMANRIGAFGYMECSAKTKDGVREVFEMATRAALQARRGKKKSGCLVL
Protocol: HCT116 cells were treated with DMSO or CL16 (25 or 50 μM) in complete medium for 4 hours, washed with PBS, harvested, and lysed in PBS by sonication. The protein amount of the samples was determined by BCA assay and normalized. The cell lysates in PBS were reduced by TCEP (1 mM) at 65° C. for 30 min, followed by alkylation with iodoacetamide (18 mM) at 37° C. for 30 min in the dark. The mixtures were added with prechilled acetone (600 μL) for protein precipitation at −20° C. overnight. The samples were centrifuged at 8000g for 10 min at 4° C. The supernatant was discarded and the dried pellet was resuspended in […] in PBS (100 μL). Sequencing grade trypsin (Promega #V5111) were added to the samples for overnight digestion at 37° C. with constant shaking. The solutions were then acidified with formic acid (FA; final concentration 5%), centrifuged at 13,200 rpm for 30 min at 4° C. The supernatant was collected and stored at −80° C. before MS analysis.
The peptide solutions were dried and desalted by C18 Stage tips, and the peptides were loaded onto an Aurora C18 UHPLC column (75 μm i.d.×25 cm length×1.6 μm particle size (IonOpticks Australia) coupled to timsTOF Pro mass spectrometer (Bruker). […]

Cdc42, sequence (P60953 whole entry): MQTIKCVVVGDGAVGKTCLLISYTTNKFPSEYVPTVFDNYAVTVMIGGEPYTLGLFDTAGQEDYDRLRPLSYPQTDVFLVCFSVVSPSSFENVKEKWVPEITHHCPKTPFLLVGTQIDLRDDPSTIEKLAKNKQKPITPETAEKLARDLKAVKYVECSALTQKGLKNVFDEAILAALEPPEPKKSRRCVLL

binding with Cdc42 [1]: no observable binding | covalent modification site on RhoA [4]: Cys16
SMILES: O=C(CCl)N1N=C(c2cc3ccccc3o2)CC1c1ccco1 (stereo not shown) [CL16]
toxicity in normal cells (cell viability) [2]: much less toxic | cell migration [3]: good efficacy in reducing HT29 cell migration and invasion
